According to patent US9539315B2, “Methods, agents and peptides for inhibiting matrix metalloproteinase-2 signaling” (New York University, priority 2011, dated 2017):

Tests used:
[1] = system: bone-marrow-derived DCs; assay: Activation of bone-marrow-derived DCs from wild-type and TLR-deficient mice; type: cell-based, C57/BL6 mice
Method: Bone-marrow-derived DCs from wild-type, TLR2^−/−, TLR6^−/− or MyD88^−/− C57/BL6 mice (3 mice pooled/condition) were incubated overnight with 5 μg/ml mMMP-2 or mMMP-9 as well as TLR agonists for controls. TNFα (A) and IL-6 (B) were measured by cytometric bead array analysis. Results are represented as a mean of triplicates±s.d. Two-tailed Student's t-tests were used for specific pairwise comparisons between conditions. p values≦0.05 (*) were considered statistically significant. C) Murine OX40L expression was assessed 2 days later by immunostaining.
Bone-marrow-derived DCs (BM-DCs) were generated and cultured with murine MMP-2 or various controls. […] On the other hand, TLR2^−/− and MyD88^−/− BM-DCs were not activated by MMP-2 (n=3; p<0.02 compared to wild-type mice) (FIG. 9A-C). […] Therefore, MMP-2 induces DCs to produce inflammatory cytokines and to up-regulate OX40L in a TLR2/MyD88-dependent manner.

[2] = system: MMP-2-specific CD4^+ T cells; assay: Screen of overlapping MMP-2 peptides for recognition by CD4+ T cell clones; type: cell-based, human; conditions: 20-mer peptides of MMP-2
From the text: By way of background, the present inventors used a pool of sixty-six 20-amino acid long, partially overlapping peptides spanning the entire sequence of MMP-2 (SEQ ID NO: 1) to screen for the presence of MMP-2-specific CD4^+ T cells and identify the specific MMP-2 epitopes for which these clones were specific. See, for example, FIG. 6. Using this method, CD4^+ T cell clones specific for eleven distinct and novel MMP-2-derived peptides/epitopes were generated. An empirical approach to determining which, if any, of the potential MMP-2 peptides could induce MMP-2-specific CD4^+ T cells was necessitated because of the nature and complexity of antigen processing and presentation by antigen presenting cells [APCs; e.g., monocyte-derived dendritic cells (DCs)] and the additional complexities involved in T cell recognition of presented antigen, which are influenced by, for example, the presence and/or concentration of particular cytokines that are instructive for divergent T cell differentiation pathways.
Peripheral blood mononuclear cells (PBMCs) can be purified from healthy donor- (HD) or cord blood donor- (CB) derived buffy coats (New York Blood Center) by Ficoll-Paque Plus (GE Healthcare) centrifugation. CD4^+/CD25^− cells were enriched (>90%) by magnetic cell sorting (Miltenyi Biotec) and primed/stimulated for 12-15 days either with irradiated (35Gy) autologous CD4^− cells or with autologous mature DCs in IMDM (GIBCO) supplemented with 1 mM HEPES (Life Technologies), 2 mM L-glutamine (Sigma), […] (Sigma) and 5% heat inactivated pooled human serum (PHS; Valley Biomedical) in the presence of rhIL-2 (10 UI/mL) and IL7 (5 ng/mL) (R&D Systems). Antigen presenting cells (CD4^− cells or DCs) were loaded either with peptides […] or with the MMP-2 protein (10 μg/mL) for 2 and 5 h, respectively. To generate T cell clones, we originally relied on our published methodology (Godefroy et al., 2006; Godefroy et al., 2007; the entire content of each of which is incorporated herein by reference), involving enrichment of IFNγ-secreting cells upon short-term culture and peptide stimulation to generate MMP-2 responsive clones. Briefly, CD4^+ T cells were stimulated by CD4^− cells irradiated and pulsed with peptides for 12 days in the presence of rhIL-2 and rhIL-7. CD4^+ T cells were then restimulated with peptides for 3 hours before capturing IFNγ-secreting specific cells using a bispecific antibody coating T cells and capturing produced IFNγ. Positive cells were purified magnetically before being cloned. Although MMP-2-specific cells could be isolated, it was realized that IFNγ secretion was marginal compared to their secretion of IL-4 and TNFα. IFNγ-secreting cells in response to MMP-2 peptide pool were enriched by cytokine-guided magnetic cell sorting (Miltenyi Biotec) as described above and cloned the following day by limiting dilution in the presence of irradiated allogeneic PBMCs, 1 μg/mL phytohemagglutinin-L (Sigma) and 150 UI/mL rhIL-2. Tumor infiltrating lymphocytes (TILs) were provided by Pr. F. Jotereau and B. Dréno. They were obtained from tumor-invaded lymph nodes of melanoma patients (stage IIIb) and expanded ex vivo. These patients received autologous TILs and IL-2 infusions in a clinical trial (Labarriere et al., 2002). This protocol was approved by the Institutional Ethics Committee and registered with regulatory state authority in France (Nantes).
T-bet and GATA-3 expression was measured on resting T cells. Cells were fixed (4% paraformaldehyde for 10 min at RT), permeabilized with 0.1% saponin, and stained for intracellular transcription factors. Cytokine production by T cells was also assessed by intracellular staining. T cells were stimulated with 2 μM overlapping peptides. After 1 h, 10 μg/mL brefeldin A was added to the cells. […]

[3] = system: OX40L; assay: OX40L expression on DCs (staining); type: cell-based, human; conditions: for OX40L expression on DCs: DCs exposed for 2 days, stained for OX40L
Method: (§1) A) DCs were exposed to MMP-2 […] or zymosan […], a known activator of NF-κB that acts via TLR2, for the indicated time. Cytosolic and nuclear fractions were isolated and p50 contents were measured by ELISA. […] C) OX40L over-expression on DCs induced by MMP-2 is inhibited by an inhibitor of NEMO, the NEMO binding domain (NBD) peptide, but not by the corresponding negative control, a NBD mutant.
A) DCs were exposed to various TLR agonists for 2 days before cells were stained for OX40L. […] B) TLR2-transfected and engineered HEK cells were incubated with MMP-2 (5 mg/ml) or various controls. All conditions were also tested in the presence of a blocking antibody for TLR2. TNFα was used to activate NF-κB in a TLR-independent manner. Twenty hours later, NF-κB activation was measured.
Antibody to OX40L (11C3.1) was from Biolegend. Blocking antibodies to TLR-2 and TLR-6 were from Invivogen. Antibodies to GATA-3, IL-4 (8D4-8), IL-5 (JES1-39D10), IL-13 (JES10-5A2), TNFα (MAb11), IFNγ (25723.11), perforin (δG9), GranzymeB (GB11), CD40 (5C3), CD80 (L307.4), CD83 (HB15e), CD86 (IT2.2), HLA-DR (TU36), fluorescein isothiocyanate-conjugated antibodies to CD45RA (HI100) and CD45RO (UCHL1), and antibody to CD4 (RPA-T4) were purchased from BD Biosciences Pharmingen. Alexa fluor 488-conjugated antibody to IL-17 (eBio64DEC17), phycoerythrine-conjugated antibody to T-bet (4B10).
(§2) PBMCs were purified from healthy-(HD) or cord blood- (CB) donors and plated at 40×10^6 cells/10 mL/dish in complete IMDM with 5% PHS. Cells were allowed to adhere for 2 h at 37° C. Non-adherent cells were removed. The monocyte-enriched fraction was supplemented with 100 UI/mL rhGMCSF and 300 UI/mL rhIL-4 (R&D Systems) on days 0, 2 and 4. Immature DCs were harvested on day 5 and matured using poly(I:C) at 5 μg/mL/10^6 DCs (Amersham). Secretion of IL-12p70, TNFα, IL-1β, IL-6, IL-8 and IL-10 was assessed on both immature and mature DCs using the Human Inflammatory Cytokine Cytometric Bead Array (BD Pharmingen).

[4] = system: NF-κB pathway; assay: p50 nuclear translocation / NF-κB activation in DCs (ELISA of cytosolic and nuclear fractions); type: cell-based, human
Method: as §1, §2
Activation of T cell clones (10,000 cells/100 μL/well), polyclonal T cell populations (100,000 cells/100 μL/well), and DCs (50,000 cells/100 μL/well) can be determined by ELISA. IFNγ (BioSource), TNFα (BioSource), IL-4 (BioSource), IFNβ (VeriKine; PBL interferon source) and MCP-3 (DuoSet; R&D Systems) contents in supernatants were measured according to the manufacturer's instructions. p50 was measured in cytosolic and nuclear fractions (fractions separated using the nuclear separation kit from Active motif) by ELISA (Active motif).

| Molecule | recognition as epitope by CD4+ T cell clones [2] | also measured |
| --- | --- | --- |
| murine MMP-2: murine MMP-2 protein, active or inactive |  | activation of bone-marrow-derived DCs ([1]; FIG. 9 summary): activates bone-marrow-derived DCs in a TLR2- and MyD88-dependent manner; activation of TLR2−/− and MyD88−/− BM-DCs ([1]; TLR2−/− and MyD88−/− BM-DCs, n=3): not activated; inflammatory cytokine secretion (TNFα, IL-6) by BM-DCs ([1]; wild-type and TLR6−/− BM-DCs, 5 μg/ml overnight, active or inactive): secreted inflammatory cytokines; OX40L up-regulation on BM-DCs ([1]; wild-type and TLR6−/− BM-DCs, 2 days): up-regulated OX40L |
| ESCTSAGRSDGKMWCATTAN (listed as Homo sapiens) [P361-380] | recognized by CD4^+ T cell clones |  |
| VDLQGGGHSYFFKGAYYLKL (listed as Homo sapiens) [P621-640] | recognized by CD4^+ T cell clones |  |
| GYPKPLTSLGLPPDVQRVDA (listed as Homo sapiens) [P551-570] | recognized by CD4^+ T cell clones |  |
| AFNWSKNKKTYIFAGDKFWR (listed as Homo sapiens) [P571-590] | recognized by CD4^+ T cell clones |  |
| Pam3CSK4 |  | OX40L over-expression on TLR-2-transfected HEK cells or DCs ([3]; TLR-2/TLR-1 agonist): did not induce OX40L over-expression |
| NEMO binding domain (NBD) peptide |  | inhibition of OX40L over-expression on DCs induced by MMP-2 ([3]; DCs, MMP-2-induced): inhibited |
| VAPKTDKELAVQYLNTFYGC (listed as Homo sapiens) [P41-60] | recognized by CD4^+ T cell clones |  |
| GCLLSHAAAAPSPIIKFPGD (listed as Homo sapiens) [P21-40] | recognized by CD4^+ T cell clones |  |
| MEALMARGALTGPLRALCLL (listed as Homo sapiens) [P1-20] | recognized by CD4^+ T cell clones |  |
| TGPLRALCLLGCLLSHAAAA (listed as Homo sapiens) [P11-30] | recognized by CD4^+ T cell clones |  |
| RIHDGEADIMINFGRWEHGD (listed as Homo sapiens) [P161-180] | recognized by CD4^+ T cell clones |  |
| FFKGAYYLKLENQSLKSVKF (listed as Homo sapiens) [P631-650] | recognized by CD4^+ T cell clones |  |
| GFPKLIADAWNAIPDNLDAV (listed as Homo sapiens) [P601-620] | recognized by CD4^+ T cell clones |  |
| MALP-2 |  | OX40L expression on DCs [3]: induce OX40L on DCs |
| heat-inactivated (HI) MMP-2: MMP-2 enzyme inactivated by heating to 56° C. for 45 min (protein) YNFFPRKPKWDKNQITYRIIGYTPDLDPETVDDAFARAFQVWSDVTPLRFSRIHDGEADIMINFGRWEHGDGYPFDGKDGLLAHAFAPGTGVGGDSHFDDDELWTLGEGQVVRVKYGNADGEYCKFPFLFNGKEYNSCTDTGRSDGFLWCSTTYNFEKDGKYGFCPHEALFTMGGNAEGQPCKFPFRFQGTSYDSCTTEGRTDGYRWCGTTEDYDRDKKYGFCPETAMSTVGGNSEGAPCVFPFTFLGNKYESCTSAGRSDGKMWCATTANYDDDRKWGFCPDQGYSLFLVAAHEFGHAMGLEHSQDPGALMAPIYTYTKNFRLSQDDIKGIQELYGASPDIDLGTGPTPTLGPVTPEICKQDIVFDGIAQIRGEIFFFKDRFIWRTVTPRDKPMGPLLVATFWPELPEKIDAVYEAPQEEKAVFFAGNEYWIYSASTLERGYPKPLTSLGLPPDVQRVDAAFNWSKNKKTYIFAGDKFWRYNEVKKKMDPGFPKLIADAWNAIPDNLDAVVDLQGGGHSYFFKGAYYLKLENQSLKSVKFGSIKSDWLGC |  | OX40L expression on DCs [3]: induce OX40L expression; p50 translocation in the nucleus ([4]; DCs exposed to MMP-2 (5 μm/ml) or zymosan (10 μm/ml), p50 by ELISA): trigger p50 translocation in the nucleus; NF-κB activation in DCs ([4]; active vs heat-inactivated MMP-2): NF-κB activation (FIGS. 2A, 2B and 3) at similar levels |
